Measured values: ChEMBL document CHEMBL1121882, “Approaches to vasodilating/beta-adrenergic blocking agents: examples of the dihydrolutidine type” (1981)

Legend:
Rattus norvegicus [1] = experiment: Compound was tested for effect on arterial pressure in spontaneously hypertensive rats (SHR) at 5 mg/kg, po; type: functional, Artery
Rattus norvegicus [2] = experiment: Compound was tested for effect on arterial pressure in spontaneously hypertensive rats (SHR) at 20 mg/kg, po; type: functional, Artery
Rattus norvegicus [3] = experiment: Compound was tested for effect on arterial pressure in spontaneously hypertensive rats (SHR) at 20 mg/kg administered intraperitoneally; type: functional, Artery; conditions: route intraperitoneal
Rattus norvegicus [4] = experiment: Compound was tested for effect on arterial pressure in spontaneously hypertensive rats (SHR) at 1.25 mg/kg, po; type: functional, Artery
Rattus norvegicus [5] = experiment: Compound was tested for effect on arterial pressure in spontaneously hypertensive rats (SHR) at 20 mg/kg administered intraperitoneally; Death; type: functional, organism-based; design: dose 20 mg/kg; conditions: Artery

| SMILES | Max fall in MAP (Rattus norvegicus [1]) [mmHg] | Max fall in MAP (Rattus norvegicus [4]) [mmHg] | Max fall in MAP (Rattus norvegicus [5]) | other results |
| --- | --- | --- | --- | --- |
| CC(C)NCC(O)COc1cccc2ccccc12 (stereo not given) [PROPRANOLOL] | 7 | – | – | – |
| CCOC(=O)C1=C(C)N=C(C)/C(=C(/O)OCC)C1c1ccccc1OCC(O)CNC(C)(C)C (stereo not given) | – | – | – | Max fall in MAP (Rattus norvegicus [2]): 16 mmHg; Max fall in MAP (Rattus norvegicus [3]): 15 mmHg |
| CCOC(=O)C1=C(C)N=C(C)/C(=C(/O)OCC)C1c1ccccc1C(F)(F)F (stereo not given) | 41 | – | – | – |
| CCOC(=O)C1=C(C)N=C(C)/C(=C(/O)OCC)C1c1ccc(OCC(O)CNC(C)(C)C)cc1C (stereo not given) | 42 | 12 | Death | – |
| CCOC(=O)C1=C(C)N=C(C)/C(=C(/O)OCC)C1c1ccc(OCC(O)CNC(C)(C)C)cc1 (stereo not given) | 17 | – | Death | – |
| CC(C)(C)NC[C@H](O)COc1nsnc1N1CCOCC1 [TIMOLOL] | – | -1 | – | – |
